The test concerns Virg09 virus clones with HA mutations. The format is cell-based, influenza A virus.
[1] abbreviates: read-out: Antiviral EC50 by MTS assay, mutant A81/82_1V.
Where [2] appears, read: read-out: Antiviral EC50 by MTS assay, mutant D90_2G.
[3] abbreviates: read-out: Antiviral EC50 by MTS assay, mutant F118_1L.
Where [4] appears, read: read-out: Antiviral EC50 by MTS assay, mutant S54_2P.
[5] abbreviates: read-out: Antiviral EC50 by MTS assay, mutant T301_1I.
The mark [6] stands for this setting: read-out: EC50 against all virus clones selected under VF-57a or RL-007.

Where two headings read alike, the source gives them in different places.

Turning to `O=C1c2c(O)c(=O)ccn2N([C@@H]2c3ccccc3SCc3c2ccc(F)c3F)[C@@H]2COCCN12` [BXA, baloxavir acid], the “Activity against all viruses tested (in words)” value is “equally active”. The EC50 under setting [1] was determined as 0.003 ± 0.0007 µM. For the same molecule, the EC50 under setting [2] was 0.0017 ± 0.0002 µM. For the same molecule, the EC50 under setting [3] is 0.0025 ± 0.0005 µM. The EC50 under setting [4] is 0.0017 ± 0.0008 µM. Also, the EC50 under setting [5] is 0.0019 ± 0.0001 µM.

With `Cc1cc(CNC(=O)c2cc(Cl)cc(C(F)(F)F)c2)c(C)s1` [Compound 23, 3-Chloro-N-[(2,5-dimethylthiophen-3-yl)methyl]-5-(trifluoromethyl)benzamide], the EC50 was more than 40 µM under setting [1]; more than 40 µM under setting [2]; more than 40 µM under setting [3]; more than 40 µM under setting [4]; more than 40 µM under setting [5]; more than 40 µM under setting [6].

On to `CC(C)c1ccccc1NCCN1CCCCC1` [RL-007, reference compound], for which the EC50 runs as follows: under setting [1], more than 40 µM; under setting [2], more than 40 µM; under setting [3], more than 40 µM; under setting [4], more than 40 µM; under setting [5], more than 40 µM; under setting [6], more than 40 µM.
